Assay results: patent publication US8921360B2, “Heterobicycle-substituted azolyl benzene fungicides” (priority 2009, dated 2014)

How the values were obtained:
Format in all cases: in vivo
[1] = tested on: Erysiphe graminis f. sp. tritici; assay: Test A: wheat powdery mildew, preventive spray on wheat seedlings; settings: wheat seedlings sprayed to run-off, inoculated next day, rated after 8 days, 100 = 100% disease control, 0 = no control; for Percentage Disease Control Test A: 200 ppm
Source text: General protocol for preparing test suspensions for Tests A-G: the test compounds were first dissolved in acetone in an amount equal to 11% of the final volume and then suspended at the desired concentration (in ppm) in acetone and purified water (50/50 mix by volume) containing 250 ppm of the surfactant Trem® 014 (polyhydric alcohol esters). The resulting test suspensions were then used in Tests A-G. Spraying a 200 ppm test suspension to the point of run-off on the test plants was the equivalent of a rate of 800 g/ha. The test suspension was sprayed to the point of run-off on wheat seedlings. The following day the seedlings were inoculated with a spore dust of Erysiphe graminis f. sp. tritici, (the causal agent of wheat powdery mildew) and incubated in a growth chamber at 20° C. for 8 days, after which time disease ratings were visually made. Results for Tests A-G are given in Table A. In the Table, a rating of 100 indicates 100% disease control and a rating of 0 indicates no disease control (relative to the controls). A dash (-) indicates no test results. All results are for 200 ppm except where followed by an “*”, which indicates 40 ppm.

Botrytis cinerea = assay: Test F: tomato botrytis, preventive spray on tomato seedlings; settings: tomato seedlings sprayed to run-off, inoculated next day, rated after 48 h + 3 days; for Percentage Disease Control Test F: 200 ppm
Source text: General protocol for preparing test suspensions for Tests A-G: the test compounds were first dissolved in acetone in an amount equal to 11% of the final volume and then suspended at the desired concentration (in ppm) in acetone and purified water (50/50 mix by volume) containing 250 ppm of the surfactant Trem® 014 (polyhydric alcohol esters). The resulting test suspensions were then used in Tests A-G. Spraying a 200 ppm test suspension to the point of run-off on the test plants was the equivalent of a rate of 800 g/ha. The test suspension was sprayed to the point of run-off on tomato seedlings. The following day the seedlings were inoculated with a spore suspension of Botrytis cinerea (the causal agent of tomato botrytis) and incubated in saturated atmosphere at 20° C. for 48 h, and then moved to a growth chamber at 27° C. for 3 additional days, after which time disease ratings were visually made. Results for Tests A-G are given in Table A. In the Table, a rating of 100 indicates 100% disease control and a rating of 0 indicates no disease control (relative to the controls). A dash (-) indicates no test results. All results are for 200 ppm except where followed by an “*”, which indicates 40 ppm.

[2] = tested on: Puccinia recondita f sp. tritici; assay: Test B: wheat leaf rust, preventive spray on wheat seedlings; settings: wheat seedlings sprayed to run-off, inoculated next day, rated after 24 h + 7 days; for Percentage Disease Control Test B: 200 ppm
Source text: General protocol for preparing test suspensions for Tests A-G: the test compounds were first dissolved in acetone in an amount equal to 11% of the final volume and then suspended at the desired concentration (in ppm) in acetone and purified water (50/50 mix by volume) containing 250 ppm of the surfactant Trem® 014 (polyhydric alcohol esters). The resulting test suspensions were then used in Tests A-G. Spraying a 200 ppm test suspension to the point of run-off on the test plants was the equivalent of a rate of 800 g/ha. The test suspension was sprayed to the point of run-off on wheat seedlings. The following day the seedlings were inoculated with a spore suspension of Puccinia recondita f sp. tritici (the causal agent of wheat leaf rust) and incubated in a saturated atmosphere at 20° C. for 24 h, and then moved to a growth chamber at 20° C. for 7 days, after which time disease ratings were visually made. Results for Tests A-G are given in Table A. In the Table, a rating of 100 indicates 100% disease control and a rating of 0 indicates no disease control (relative to the controls). A dash (-) indicates no test results. All results are for 200 ppm except where followed by an “*”, which indicates 40 ppm.

Alternaria solani = assay: Test G: tomato early blight, preventive spray on tomato seedlings; settings: tomato seedlings sprayed to run-off, inoculated next day, rated after 48 h + 5 days; for Percentage Disease Control Test G: 200 ppm
Source text: General protocol for preparing test suspensions for Tests A-G: the test compounds were first dissolved in acetone in an amount equal to 11% of the final volume and then suspended at the desired concentration (in ppm) in acetone and purified water (50/50 mix by volume) containing 250 ppm of the surfactant Trem® 014 (polyhydric alcohol esters). The resulting test suspensions were then used in Tests A-G. Spraying a 200 ppm test suspension to the point of run-off on the test plants was the equivalent of a rate of 800 g/ha. The test suspension was sprayed to the point of run-off on tomato seedlings. The following day the seedlings were inoculated with a spore suspension of Alternaria solani (the causal agent of tomato early blight) and incubated in a saturated atmosphere at 27° C. for 48 h, and then moved to a growth chamber at 24° C. for 5 days, after which time disease ratings were visually made. Results for Tests A-G are given in Table A. In the Table, a rating of 100 indicates 100% disease control and a rating of 0 indicates no disease control (relative to the controls). A dash (-) indicates no test results. All results are for 200 ppm except where followed by an “*”, which indicates 40 ppm.

Septoria nodorum = assay: Test D: wheat glume blotch, preventive spray on wheat seedlings; settings: wheat seedlings sprayed to run-off, inoculated next day, rated after 48 h + 7 days; for Percentage Disease Control Test D: 200 ppm
Source text: General protocol for preparing test suspensions for Tests A-G: the test compounds were first dissolved in acetone in an amount equal to 11% of the final volume and then suspended at the desired concentration (in ppm) in acetone and purified water (50/50 mix by volume) containing 250 ppm of the surfactant Trem® 014 (polyhydric alcohol esters). The resulting test suspensions were then used in Tests A-G. Spraying a 200 ppm test suspension to the point of run-off on the test plants was the equivalent of a rate of 800 g/ha. The test suspension was sprayed to the point of run-off on wheat seedlings. The following day the seedlings were inoculated with a spore suspension of Septoria nodorum (the causal agent of wheat glume blotch) and incubated in a saturated atmosphere at 20° C. for 48 h, and then moved to a growth chamber at 20° C. for 7 days, after which time disease ratings were visually made. Results for Tests A-G are given in Table A. In the Table, a rating of 100 indicates 100% disease control and a rating of 0 indicates no disease control (relative to the controls). A dash (-) indicates no test results. All results are for 200 ppm except where followed by an “*”, which indicates 40 ppm.

Septoria tritici = assay: Test E: wheat leaf blotch, preventive spray on wheat seedlings; settings: 200 ppm, wheat seedlings sprayed to run-off, inoculated next day, rated after 48 h + 19 days
Source text: General protocol for preparing test suspensions for Tests A-G: the test compounds were first dissolved in acetone in an amount equal to 11% of the final volume and then suspended at the desired concentration (in ppm) in acetone and purified water (50/50 mix by volume) containing 250 ppm of the surfactant Trem® 014 (polyhydric alcohol esters). The resulting test suspensions were then used in Tests A-G. Spraying a 200 ppm test suspension to the point of run-off on the test plants was the equivalent of a rate of 800 g/ha. The test suspension was sprayed to the point of run-off on wheat seedlings. The following day the seedlings were inoculated with a spore suspension of Septoria tritici (the causal agent of wheat leaf blotch) and incubated in a saturated atmosphere at 24° C. for 48 h, and then moved to a growth chamber at 20° C. for 19 days, after which time disease ratings were visually made. Results for Tests A-G are given in Table A. In the Table, a rating of 100 indicates 100% disease control and a rating of 0 indicates no disease control (relative to the controls). A dash (-) indicates no test results. All results are for 200 ppm except where followed by an “*”, which indicates 40 ppm.

[3] = tested on: Puccinia recondita f. sp. tritici; assay: Test C: wheat leaf rust, spray the day after inoculation of wheat seedlings; settings: 200 ppm; wheat seedlings inoculated, sprayed the following day, rated after 5 days;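 further: Curative spray on infected wheat seedlings with visual rating 5 days later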
Source text: General protocol for preparing test suspensions for Tests A-G: the test compounds were first dissolved in acetone in an amount equal to 11% of the final volume and then suspended at the desired concentration (in ppm) in acetone and purified water (50/50 mix by volume) containing 250 ppm of the surfactant Trem® 014 (polyhydric alcohol esters). The resulting test suspensions were then used in Tests A-G. Spraying a 200 ppm test suspension to the point of run-off on the test plants was the equivalent of a rate of 800 g/ha. Wheat seedlings were inoculated with a spore suspension of Puccinia recondita f. sp. tritici (the causal agent of wheat leaf rust) and incubated in a saturated atmosphere at 20° C. for 24 h. The following day, the test suspension was sprayed to the point of run-off on the wheat seedlings and then moved to a growth chamber at 20° C. for 5 days, after which time disease ratings were visually made. Results for Tests A-G are given in Table A. In the Table, a rating of 100 indicates 100% disease control and a rating of 0 indicates no disease control (relative to the controls). A dash (-) indicates no test results. All results are for 200 ppm except where followed by an “*”, which indicates 40 ppm.

In the case of COC(=O)NCc1cc(-c2ccn(-c3ccc4c(c3)CCCO4)n2)ccc1Cl [Compound 1, methyl N-[[2-chloro-5-[1-(3,4-dihydro-2H-1-benzopyran-6-yl)-1H-pyrazol-3-yl]phenyl]methyl]carbamate], the pest or weed control at 200 ppm ([1]; Blumeria graminis, 192 h, read-out: Percentage Disease Control Test A) is reported as 100%, the pest or weed control at 200 ppm (Botrytis cinerea; Botrytis cinerea, topical, 120 h, read-out: Percentage Disease Control Test F) is reported as 0% and the pest or weed control at 200 ppm ([2]; Puccinia recondita, 192 h, read-out: Percentage Disease Control Test B) is reported as 100%. It also gave a pest or weed control at 200 ppm (Alternaria solani; Alternaria solani, topical, 168 h, read-out: Percentage Disease Control Test G) of 100%, a pest or weed control at 200 ppm (Septoria nodorum; Parastagonospora nodorum, 216 h, read-out: Percentage Disease Control Test D) of 100% and a pest or weed control at 200 ppm (Septoria tritici; Zymoseptoria tritici, 456 h, read-out: Percentage Disease Control Test E) of 92%.
COC(=O)NCc1cc(-n2ccc(-c3ccc4c(c3)OCCO4)n2)ccc1F [Compound 10] was tested, and the “Percentage Disease Control Test A” value [1] was 100%, the “Percentage Disease Control Test F” value (Botrytis cinerea) was 94% and the “Percentage Disease Control Test B” value [2] was 100%. The “Percentage Disease Control Test C” value [3] was 100%, the “Percentage Disease Control Test G” value (Alternaria solani) was 84% and the “Percentage Disease Control Test D” value (Septoria nodorum) was 100%. The “Percentage Disease Control Test E” value (Septoria tritici) was 98%.
In the case of COC(=O)NCc1cc(-c2ccn(-c3ccc4c(c3)N(C)C(=O)CO4)n2)ccc1F [Compound 13], the “Percentage Disease Control Test A” value [1] is reported as 90%, the “Percentage Disease Control Test F” value (Botrytis cinerea) is reported as 7% and the “Percentage Disease Control Test B” value [2] is reported as 100%. For the same compound, the “Percentage Disease Control Test C” value [3] was 28%, the “Percentage Disease Control Test G” value (Alternaria solani) was 54% and the “Percentage Disease Control Test D” value (Septoria nodorum) was 97%. For the same compound, the “Percentage Disease Control Test E” value (Septoria tritici) was 24%.
For COC(=O)NCc1cc(-n2ccc(-c3ccc4c(c3)NC(=O)CO4)n2)ccc1F [Compound 14], the “Percentage Disease Control Test A” value [1] was 0%, the “Percentage Disease Control Test F” value (Botrytis cinerea) was 0% and the “Percentage Disease Control Test B” value [2] was 54%. The “Percentage Disease Control Test C” value [3] was 0%, the “Percentage Disease Control Test G” value (Alternaria solani) was 0% and the “Percentage Disease Control Test D” value (Septoria nodorum) was 0%. For the same compound, the “Percentage Disease Control Test E” value (Septoria tritici) was 44%.
For COC(=O)NCc1cc(-n2ccc(-c3ccc4c(c3)NCCO4)n2)ccc1F [Compound 15], the “Percentage Disease Control Test A” value [1] was 0%, the “Percentage Disease Control Test F” value (Botrytis cinerea) was 80% and the “Percentage Disease Control Test B” value [2] was 100%. The “Percentage Disease Control Test C” value [3] was 38%, the “Percentage Disease Control Test G” value (Alternaria solani) was 12% and the “Percentage Disease Control Test D” value (Septoria nodorum) was 100%. For the same compound, the “Percentage Disease Control Test E” value (Septoria tritici) was 99%.
In the case of COC(=O)NCc1cc(-c2ccn(-c3ccc4c(c3)CCCO4)n2)ccc1Br [Compound 16], the “Percentage Disease Control Test A” value [1] is reported as 100%, the “Percentage Disease Control Test F” value (Botrytis cinerea) is reported as 99% and the “Percentage Disease Control Test B” value [2] is reported as 100%. The “Percentage Disease Control Test C” value [3] was 100%, the “Percentage Disease Control Test G” value (Alternaria solani) was 85% and the “Percentage Disease Control Test D” value (Septoria nodorum) was 100%. The “Percentage Disease Control Test E” value (Septoria tritici) was 100%.
COC(=O)NCc1cc(-c2ccn(-c3ccc4c(c3)OCCO4)n2)ccc1Br [Compound 17] was tested, and the “Percentage Disease Control Test A” value [1] was 100%, the “Percentage Disease Control Test F” value (Botrytis cinerea) was 87% and the “Percentage Disease Control Test B” value [2] was 100%. For the same compound, the “Percentage Disease Control Test C” value [3] was 100%, the “Percentage Disease Control Test G” value (Alternaria solani) was 93% and the “Percentage Disease Control Test D” value (Septoria nodorum) was 100%. The “Percentage Disease Control Test E” value (Septoria tritici) was 99%.
